The structures appear in SMILES notation. Counter-ions that a name gives are not always drawn.

Data set [1] can be described thus: Gravimetric vapour sorption (GVS). Type of data set: physicochemical. As to conditions: for GVS weight loss, initial desorption cycle: from 50% RH to 0% RH; for GVS water gain, subsequent sorption cycle: up to 90% RH; for crystalline form (XRPD) after GVS at extremes of humidity: 0% RH and 90% RH, result in words. As for the experimental part:
Sorption isotherms were obtained using a Hiden Isochema moisture sorption analyser (model IGAsorp), controlled by IGAsorp Systems Software V6.50.48. The sample was maintained at a constant temperature (25° C.) by the instrument controls. The humidity was controlled by mixing streams of dry and wet nitrogen, with a total flow of 250 ml·min−. The instrument was verified for relative humidity (RH) content by measuring three calibrated Rotronic salt solutions (10-50-88%). The weight change of the sample was monitored as a function of humidity by a microbalance (accuracy+/−0.005 mg). A defined amount of sample was placed in a tared mesh stainless steel basket under ambient conditions. A full experimental cycle typically consisted of three scans (sorption, desorption and sorption) at a constant temperature (25° C.) and 10% RH intervals over a 0-90% range (60 minutes for each humidity level).

Data set [2] can be described thus: Solubility of the salts in biorelevant media. Type of data set: physicochemical. As to conditions: for solubility FaSSGF (pH 1.37): Fasted State Simulated Gastric Fluid; for solubility FaSSGF (pH 1.37) / solubility FaSSIF (pH 6.71) / solubility FeSSIF (pH 5.14): 25° C., 24 h, HPLC; for solubility FaSSIF (pH 6.71): Fasted State Simulated Intestinal Fluid; for solubility FeSSIF (pH 5.14): Fed State Simulated Intestinal Fluid. On the procedure: Biorelevant media (DI H2O, FeSSIF, FaSSIF and FaSSGF) (2 mL) was charged. Samples were left to equilibrate (25° C.) over 24 h. Solubility measurements were taken using HPLC (see Method 1 above).

For `COc1cc(C2(F)CCN(C)CC2)ccc1-c1cc(Nc2cnc(C#N)cn2)n[nH]1` [Besylate Pattern A, 5-[[5-[4-(4-fluoro-1-methyl-4-piperidyl)-2-methoxy-phenyl]-1H-pyrazol-3-yl]amino]pyrazine-2-carbonitrile], the “GVS sharp increase, sorption cycle” value in data set [1] (from 40% RH to 60% RH) is recorded as 6%. For the same compound, in data set [1] (25° C.), the “GVS weight loss, initial desorption cycle” value (shortened to “GVS weight loss”) came to 2.5 wt % and the “GVS water gain, subsequent sorption cycle” value (“GVS water gain” below) worked out at 10%. For the same compound, in data set [1] (from 90% RH to 30% RH), the “GVS steady decrease, following desorption cycle” value is on record as about 3 wt %.

For the compound `COc1cc(C2(F)CCN(C)CC2)ccc1-c1cc(Nc2cnc(C#N)cn2)n[nH]1` [bis-besylate pattern B, 5-[[5-[4-(4-fluoro-1-methyl-4-piperidyl)-2-methoxy-phenyl]-1H-pyrazol-3-yl]amino]pyrazine-2-carbonitrile], the “Aqueous solubility mg/mL 24 h” value worked out at 0.06 mg/mL.

Turning to `COc1cc(C2(F)CCN(C)CC2)ccc1-c1cc(Nc2cnc(C#N)cn2)n[nH]1` [Tosylate Pattern A, 5-[[5-[4-(4-fluoro-1-methyl-4-piperidyl)-2-methoxy-phenyl]-1H-pyrazol-3-yl]amino]pyrazine-2-carbonitrile], in data set [1], the “crystalline form (XRPD) after GVS at extremes of humidity” value (“crystalline form (XRPD) after GVS” below) is “No form change at 0% RH and 90% RH”. For the same compound, the “GVS sharp decrease, initial desorption” value in data set [1] (from 10% RH to 0% RH) is on record as about 3 wt %. For the same compound, the “GVS steady increase, subsequent sorption” value in data set [1] (from 10% RH to 90% RH) was about 1%. For the same compound, the “GVS weight loss” value in data set [1] (25° C.) is 3.5 wt %. Moreover, in data set [1] (from 50% RH to 10% RH), the “GVS steady decrease, initial desorption” value worked out at 0.5 wt %. Also, the “GVS sharp water gain, subsequent sorption” value in data set [1] (up to 10% RH) is given as about 3%.

`COc1cc(C2(F)CCN(C)CC2)ccc1-c1cc(Nc2cnc(C#N)cn2)n[nH]1` [hydrochloride pattern C, 5-[[5-[4-(4-fluoro-1-methyl-4-piperidyl)-2-methoxy-phenyl]-1H-pyrazol-3-yl]amino]pyrazine-2-carbonitrile]: the “Aqueous solubility mg/mL 24 h” value was 10.37 mg/mL. Moreover, in data set [2], the “solubility FaSSGF (pH 1.37)” value was 8.39 mg/mL, the “solubility FaSSIF (pH 6.71)” value is given as 0.15 mg/mL and the “solubility FeSSIF (pH 5.14)” value is recorded as 0.61 mg/mL.

As for `COc1cc(C2(F)CCN(C)CC2)ccc1-c1cc(Nc2cnc(C#N)cn2)n[nH]1` [Maleate Pattern A, 5-[[5-[4-(4-fluoro-1-methyl-4-piperidyl)-2-methoxy-phenyl]-1H-pyrazol-3-yl]amino]pyrazine-2-carbonitrile], the “crystalline form (XRPD) after GVS” value in data set [1] was “A new pattern was isolated at 0 and 90% RH and was named B”. In addition, in data set [1] (90% RH, following sorption cycles), the “GVS weight gain at 90% RH, following sorption cycles” value stood at 4 wt %. In data set [1] (down to 0% RH, 25° C.), the “GVS water loss, subsequent desorption cycle” value amounted to 4%. Moreover, the “GVS weight gain, initial sorption cycle” value in data set [1] (from 50% RH to 90% RH, 25° C.) is recorded as 1.5 wt %.

For `COc1cc(C2(F)CCN(C)CC2)ccc1-c1cc(Nc2cnc(C#N)cn2)n[nH]1` [malonate, 5-[[5-[4-(4-fluoro-1-methyl-4-piperidyl)-2-methoxy-phenyl]-1H-pyrazol-3-yl]amino]pyrazine-2-carbonitrile], the “solubility in FaSSGF (gastric fluid) compared with the free base” value in data set [2] (FaSSGF, result in words) is “improved solubility over the free base in FaSSGF”.

For the compound `COc1cc(C2(F)CCN(C)CC2)ccc1-c1cc(Nc2cnc(C#N)cn2)n[nH]1` [Besylate Pattern C, 5-[[5-[4-(4-fluoro-1-methyl-4-piperidyl)-2-methoxy-phenyl]-1H-pyrazol-3-yl]amino]pyrazine-2-carbonitrile], in data set [1] (between 0% RH and 20% RH), the “GVS sharp increase, sorption cycle” value was about 2.5 wt %. In addition, in data set [1] (25° C.), the “GVS weight loss” value is about 3 wt % and the “GVS water gain” value stood at 3.75%.

For `COc1cc(C2(F)CCN(C)CC2)ccc1-c1cc(Nc2cnc(C#N)cn2)n[nH]1` [Naphthalene-2-Sulfonate Pattern A, 5-[[5-[4-(4-fluoro-1-methyl-4-piperidyl)-2-methoxy-phenyl]-1H-pyrazol-3-yl]amino]pyrazine-2-carbonitrile], the “crystalline form (XRPD) after GVS” value in data set [1] is given as “no change in the crystallinity of the solid occurred at extremes of humidity”. Besides, in data set [1] (25° C.), the “GVS weight loss” value is recorded as 1 wt % and the “GVS water gain” value was about 2.25%.

Turning to `COc1cc(C2(F)CCN(C)CC2)ccc1-c1cc(Nc2cnc(C#N)cn2)n[nH]1` [malonate pattern B, 5-[[5-[4-(4-fluoro-1-methyl-4-piperidyl)-2-methoxy-phenyl]-1H-pyrazol-3-yl]amino]pyrazine-2-carbonitrile], the “Aqueous solubility mg/mL 24 h” value amounted to 7.41 mg/mL. Also, the “GVS sharp increase, sorption cycle” value in data set [1] (between 30% RH and 40% RH) was about 3 wt %. In data set [1] (25° C.), the “GVS weight loss” value is given as 5 wt % and the “GVS water gain” value was 7.5%. Also, in data set [2], the “solubility FaSSGF (pH 1.37)” value is 3.24 mg/mL and the “solubility FeSSIF (pH 5.14)” value is on record as 0.27 mg/mL.

Turning to `COc1cc(C2(F)CCN(C)CC2)ccc1-c1cc(Nc2cnc(C#N)cn2)n[nH]1` [oxalate pattern A, 5-[[5-[4-(4-fluoro-1-methyl-4-piperidyl)-2-methoxy-phenyl]-1H-pyrazol-3-yl]amino]pyrazine-2-carbonitrile], the “Aqueous solubility mg/mL 24 h” value is 3.16 mg/mL.

On to `COc1cc(C2(F)CCN(C)CC2)ccc1-c1cc(Nc2cnc(C#N)cn2)n[nH]1` [sulphate pattern D, 5-[[5-[4-(4-fluoro-1-methyl-4-piperidyl)-2-methoxy-phenyl]-1H-pyrazol-3-yl]amino]pyrazine-2-carbonitrile], for which the “Aqueous solubility mg/mL 24 h” value is on record as 1.6 mg/mL.

`COc1cc(C2(F)CCN(C)CC2)ccc1-c1cc(Nc2cnc(C#N)cn2)n[nH]1` [bis-maleate pattern B, 5-[[5-[4-(4-fluoro-1-methyl-4-piperidyl)-2-methoxy-phenyl]-1H-pyrazol-3-yl]amino]pyrazine-2-carbonitrile]: the “Aqueous solubility mg/mL 24 h” value was 0.15 mg/mL.

With `COc1cc(C2(F)CCN(C)CC2)ccc1-c1cc(Nc2cnc(C#N)cn2)n[nH]1` [besylate pattern B, 5-[[5-[4-(4-fluoro-1-methyl-4-piperidyl)-2-methoxy-phenyl]-1H-pyrazol-3-yl]amino]pyrazine-2-carbonitrile], the “Aqueous solubility mg/mL 24 h” value is reported as 1.18 mg/mL. Also, in data set [1] (25° C.), the “GVS weight loss” value amounted to 1 wt % and the “GVS water gain” value is recorded as about 2.25%. Besides, in data set [2], the “solubility FaSSGF (pH 1.37)” value is recorded as 0.55 mg/mL, the “solubility FaSSIF (pH 6.71)” value is given as 0.04 mg/mL and the “solubility FeSSIF (pH 5.14)” value is given as 0.57 mg/mL.

On to `COc1cc(C2(F)CCN(C)CC2)ccc1-c1cc(Nc2cnc(C#N)cn2)n[nH]1` [tosylate pattern C, 5-[[5-[4-(4-fluoro-1-methyl-4-piperidyl)-2-methoxy-phenyl]-1H-pyrazol-3-yl]amino]pyrazine-2-carbonitrile], for which the “Aqueous solubility mg/mL 24 h” value is given as 1.55 mg/mL. In addition, in data set [2], the “solubility FaSSGF (pH 1.37)” value was 0.32 mg/mL, the “solubility FaSSIF (pH 6.71)” value was 0.04 mg/mL and the “solubility FeSSIF (pH 5.14)” value was 0.61 mg/mL.

Values taken from US20240360101A1, “PHARMACEUTICAL SALTS OF A CHK-1 INHIBITOR” (SENTINEL ONCOLOGY LIMITED, priority 2021, published 2024).
